Experimental data taken from patent publication US6444691B1, “1,3-disubstituted ureas as ACAT inhibitors, and method of preparing thereof” (Solvakofarma, a.s., priority 1997, dated 2002).

What was measured:
[1] = test system: rabbit intestinal mucosa ACAT (acylCoa:cholesterol acyltransferase); assay: In vitro inhibition of ACAT activity, rabbit intestinal mucosa microsomal fraction; assay type: biochemical; conditions: rabbit intestinal mucosa microsomes, concentration 2 μM, versus enzyme activity in 1% dimethylsulfoxide
Protocol: (§1) The biological activity of the substances was evaluated based on the in vitro inhibition of acylCoa:cholesterol acyltransferase (ACAT) activity. The enzyme was obtained from the microsomal fraction of rat liver cells and rabbit intestinal mucosa of animals fed with cholesterol. The substrates for the enzyme reaction included exogenous oleoyl co-enzyme A and endogenous cholesterol. ^14C-oleoyl co-enzyme A conversion to ^14C-cholesteryl oleate was monitored. From the mixture of extracted lipids, cholesteryl oleate was separated using thin-layer chromatography, and was quantified radiometrically. ACAT specific activity was expressed as the amount of cholesteryl oleate formed per minute per mg microsomal protein.
(§2) Efficiency was calculated as compared to enzyme activity measured in the presence of 1% dimethylsulfoxide used as the solvent to prepare solutions of the substances tested.

[2] = test system: rat liver ACAT (acylCoa:cholesterol acyltransferase); assay: In vitro inhibition of ACAT activity, rat liver microsomal fraction; assay type: biochemical; conditions: rat liver microsomes, concentration 2 μM, versus enzyme activity in 1% dimethylsulfoxide
Protocol: as §1, §2

Compound | Efficiency (%) mucosa (ACAT inhibition) [1] | Efficiency (%) liver (ACAT inhibition) [2]
O=C(Nc1ccc(Sc2ccc([N+](=O)[O-])cc2)cc1)NC12CC3CC(CC(C3)C1)C2 [Example 51, 1-(1-Adamantyl)-3-((4′-nitrophenylthio)-phenyl)-urea] | 56% | 45%
Cc1ccc(NC(=O)Nc2ccc(Sc3ccc([N+](=O)[O-])cc3)cc2)cc1 [Example 38, 1-(4-Methylphenyl)-3-((4′-nitrophenylthio)-phenyl)-urea] | 32% | 21%
O=C(Nc1ccc(Sc2ccc([N+](=O)[O-])cc2)cc1)Nc1cccnc1 [Example 47, 1-(3-Pyridyl)-3-((4′-nitrophenylthio)-phenyl)-urea] | 36% | 45%
O=C(Nc1ccc(Oc2ccc([N+](=O)[O-])cc2)cc1)NC12CC3CC(CC(C3)C1)C2 [Example 23] | 58% | 43%
O=C(Nc1ccc(Oc2ccc([N+](=O)[O-])cc2)cc1)Nc1cc(F)ccc1F [Example 3, 1-(2,5-Difluorophenyl)-3-((4′-nitrophenoxy)-phenyl)-urea] | 58% | 49%
O=C(Nc1ccc(Oc2ccc([N+](=O)[O-])cc2)cc1)Nc1ccc(C(F)(F)F)cc1 [Example 17, 1-(4-Trifluoromethylphenyl)-3-((4′-nitrophenoxy)-phenyl)-urea] | 18% | 25%
CC(C)c1cccc(C(C)C)c1NC(=O)Nc1ccc(Oc2ccc([N+](=O)[O-])cc2)cc1 [Example 14, 1-(2,6-Di-(methylethyl)-phenyl)-3-((4′-nitrophenoxy)-phenyl)-urea] | 67% | 50%
O=C(Nc1ccc(Sc2ccc([N+](=O)[O-])cc2)cc1)Nc1cc(F)ccc1F [Example 28, 1-(2,5-Difluorophenyl)-3-((4′-nitrophenylthio)-phenyl)-urea] | 16% | 0%
O=C(Nc1ccc(F)cc1)Nc1ccc(Sc2ccc([N+](=O)[O-])cc2)cc1 [Example 26, 1-(4-Fluorophenyl)-3-((4′-nitrophenylthio)-phenyl)-urea] | 27% | 25%
O=C(Nc1ccc(Oc2ccc([N+](=O)[O-])cc2)cc1)Nc1cc(Cl)cc(Cl)c1 [Example 8, 1-(3,5-Dichlorophenyl)-3-((4′-nitrophenoxy)-phenyl)-urea] | 0% | 0%
Cc1cc(C)cc(NC(=O)Nc2ccc(Oc3ccc([N+](=O)[O-])cc3)cc2)c1 [Example 13, 1-(3,5-Dimethylphenyl)-3-((4′-nitrophenoxy)-phenyl)-urea] | 0% | 0%
O=C(Nc1ccncc1)Nc1ccc(Oc2ccc([N+](=O)[O-])cc2)cc1 [Example 20] | 17% | 11%
O=C(Nc1ccncc1)Nc1ccc(Sc2ccc([N+](=O)[O-])cc2)cc1 [Example 48, 1-(4-Pyridyl)-3-((4′-nitrophenylthio)-phenyl)-urea] | 35% | 53%
CC(C)c1cccc(C(C)C)c1NC(=O)Nc1ccc(Sc2ccc(N)cc2)cc1 [Example 59] | 67% | 56%
O=C(Nc1ccc(Sc2ccc([N+](=O)[O-])cc2)cc1)Nc1ccc([N+](=O)[O-])cc1 [Example 24, 1-(4-Nitrophenyl)-3-((4′-nitrophenylthio)-phenyl)-urea] | 34% | 0%
O=C(Nc1ccc(Oc2ccc([N+](=O)[O-])cc2)cc1)Nc1ccc(F)cc1F [Example 2] | 55% | 37%
O=C(Nc1ccc(Sc2ccc([N+](=O)[O-])cc2)cc1)Nc1ccccc1Cl [Example 30, 1-(2-Chlorophenyl)-3-((4′-nitrophenylthio)-phenyl)-urea] | 26% | 20%
O=C(Nc1ccc(Oc2ccc([N+](=O)[O-])cc2)cc1)Nc1cccc(Cl)c1Cl [Example 6, 1-(2,3-Dichlorohenyl)-3-((4′-nitrophenoxy)-phenyl)-urea] | 51% | 58%
Nc1ccc(Oc2ccc(NC(=O)Nc3ccc(F)cc3F)cc2)cc1 [Example 52, 1-(2,4-Difluorophenyl)-3-((4′-aminophenoxy)-phenyl)-urea] | 64% | 53%
O=C(Nc1ccc(Sc2ccc([N+](=O)[O-])cc2)cc1)Nc1cccc2ccccc12 [Example 49, 1-(1-Naphthyl)-3-((4′-nitrophenylthio)-phenyl)-urea] | 36% | 24%
O=C(Nc1ccc(Sc2ccc([N+](=O)[O-])cc2)cc1)Nc1c(Cl)cccc1Cl [Example 34, 1-(2,6-Dichlorophenyl)-3-((4′-nitrophenylthio)-phenyl)-urea] | 21% | 15%
O=C(Nc1ccc(Oc2ccc([N+](=O)[O-])cc2)cc1)Nc1ccccc1Cl [Example 5, 1-(2-Chlorophenyl)-3-((4′-nitrophenoxy)-phenyl)-urea] | 0% | 0%
CC(C)c1cccc(C(C)C)c1NC(=O)Nc1ccc(Sc2ccc([N+](=O)[O-])cc2)cc1 [Example 42] | 71% | 88%
O=C(Nc1ccc(Sc2ccc([N+](=O)[O-])cc2)cc1)Nc1ccc(Cl)cc1Cl [Example 33, 1-(2,4-Dichlorophenyl)-3-((4′-nitrophenylthio)-phenyl)-urea] | 16% | 12%
O=C(Nc1ccc(Oc2ccc([N+](=O)[O-])cc2)cc1)Nc1ccccc1C(F)(F)F [Example 15, 1-(2-Trifluoromethylphenyl)-3-((4′-nitrophenoxy)-phenyl)-urea] | 42% | 46%
Nc1ccc(Sc2ccc(NC(=O)Nc3ccc(F)cc3F)cc2)cc1 [Example 56, 1-(2,4-Difluorophenyl)-3-((4′-aminophenylthio)-phenyl)-urea] | 25% | 22%
